From PubChem BioAssay (NCI)
“And” between values parts separate entries of the source, which are not always exact repeats. Equal values may be shown once.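 All cell lines were grown in 96-well plates and treated with compound for 48 hours. Here, GI50 denotes the concentration required for 50% inhibition of growth. TGI: total growth inhibition.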

Experiments:
Assay in all cases: NCI anticancer screen, dose series, 48 h
A498 renal = system: A498 renal
SK-MEL-28 melanoma = system: SK-MEL-28 melanoma
NCI-H23 lung = system: NCI-H23 lung
CAKI-1 renal = system: CAKI-1 renal
SK-MEL-2 melanoma = system: SK-MEL-2 melanoma
COLO 205 colon = system: COLO 205 colon
HS 578T breast = system: HS 578T breast
NCI-H460 lung = system: NCI-H460 lung
SF-539 CNS = system: SF-539 CNS
HT29 colon = system: HT29 colon
OVCAR-8 ovarian = system: OVCAR-8 ovarian
RXF 393 renal = system: RXF 393 renal
NCI-H522 lung = system: NCI-H522 lung
PC-3 prostate = system: PC-3 prostate
A549 NSCLC = system: A549 NSCLC
HL-60(TB) leukemia = system: HL-60(TB) leukemia
BT-549 breast = system: BT-549 breast
IGROV1 ovarian = system: IGROV1 ovarian
SN12C renal = system: SN12C renal
U251 CNS = system: U251 CNS
ACHN renal = system: ACHN renal
MALME-3M melanoma = system: MALME-3M melanoma
HOP-62 NSCLC = system: HOP-62 NSCLC
MCF7 breast = system: MCF7 breast
SW-620 colon = system: SW-620 colon
SR leukemia = system: SR leukemia
OVCAR-3 ovarian = system: OVCAR-3 ovarian
MOLT-4 leukemia = system: MOLT-4 leukemia
KM12 colon = system: KM12 colon
MDA-MB-231 breast = system: MDA-MB-231 breast
T-47D breast = system: T-47D breast
UACC-257 melanoma = system: UACC-257 melanoma
HCT-116 colon = system: HCT-116 colon
SNB-19 CNS = system: SNB-19 CNS
SF-295 CNS = system: SF-295 CNS
MDA-MB-435 = system: MDA-MB-435
HOP-92 NSCLC = system: HOP-92 NSCLC
CCRF-CEM leukemia = system: CCRF-CEM leukemia
SK-MEL-5 melanoma = system: SK-MEL-5 melanoma
UACC-62 melanoma = system: UACC-62 melanoma
M14 melanoma = system: M14 melanoma
HCT-15 colon = system: HCT-15 colon
DU-145 prostate = system: DU-145 prostate
SK-OV-3 ovarian = system: SK-OV-3 ovarian
SF-268 CNS = system: SF-268 CNS
TK-10 renal = system: TK-10 renal
OVCAR-4 ovarian = system: OVCAR-4 ovarian
K-562 leukemia = system: K-562 leukemia
NCI/ADR-RES ovarian = system: NCI/ADR-RES ovarian
RPMI-8226 leukemia = system: RPMI-8226 leukemia
LOX IMVI melanoma = system: LOX IMVI melanoma
UO-31 renal = system: UO-31 renal
786-0 renal = system: 786-0 renal
SNB-75 CNS = system: SNB-75 CNS
EKVX NSCLC = system: EKVX NSCLC
NCI-H226 lung = system: NCI-H226 lung
HCC-2998 colon = system: HCC-2998 colon

In the case of `CS(=O)(=O)CCNCc1ccc(-c2ccc3ncnc(Nc4ccc(OCc5cccc(F)c5)c(Cl)c4)c3c2)o1`, the GI50 (A498 renal) is reported as 2.32 µM and 1.98 µM and 3.67 µM, the TGI (A498 renal) is reported as > 10 µM and > 33 µM and 23.8 µM and the GI50 (SK-MEL-28 melanoma) is reported as > 10 µM and 4.37 µM and 3.35 µM. For the same molecule, the TGI (SK-MEL-28 melanoma) was > 10 µM and 16.5 µM and 18.9 µM, the GI50 (NCI-H23 lung) was > 10 µM and 7.82 µM and 10.4 µM and the TGI (NCI-H23 lung) was > 10 µM and > 100 µM and 31.1 µM. The TGI (CAKI-1 renal) was > 10 µM and > 25 µM and 27.7 µM, the GI50 (SK-MEL-2 melanoma) was > 10 µM and 2.46 µM and 5.9 µM and the TGI (SK-MEL-2 melanoma) was > 10 µM and 8.59 µM and 23.1 µM. The GI50 (COLO 205 colon) was > 10 µM and > 78.8 µM and 10.3 µM, the TGI (COLO 205 colon) was > 10 µM and > 100 µM and 33.3 µM and the GI50 (HS 578T breast) was > 10 µM and 8.49 µM and 8.64 µM. The TGI (HS 578T breast) was > 10 µM and > 53.7 µM and 57.6 µM, the GI50 (NCI-H460 lung) was > 10 µM and 4.11 µM and 8.98 µM and the TGI (NCI-H460 lung) was > 10 µM and > 29.3 µM and 48.7 µM. The GI50 (SF-539 CNS) was > 10 µM and 9.11 µM and 7.5 µM, the TGI (SF-539 CNS) was > 10 µM and 98.1 µM and 29.9 µM and the GI50 (HT29 colon) was 7.36 µM and 2.2 µM. For the same molecule, the TGI (HT29 colon) was > 10 µM and 15.8 µM, the GI50 (OVCAR-8 ovarian) was 6.83 µM and 4.17 µM and 4.12 µM and the TGI (OVCAR-8 ovarian) was > 10 µM and > 100 µM and 32.2 µM. For the same molecule, the GI50 (RXF 393 renal) was 8.01 µM and 2.05 µM and 1.79 µM, the TGI (RXF 393 renal) was > 10 µM and 4.5 µM and 7.05 µM and the GI50 (NCI-H522 lung) was 0.28 µM and 0.397 µM and 0.815 µM. The TGI (NCI-H522 lung) was > 10 µM and > 100 µM and 28.9 µM, the GI50 (PC-3 prostate) was 9.68 µM and 5.3 µM and 4.45 µM and the TGI (PC-3 prostate) was > 10 µM and > 100 µM and 46.4 µM. The GI50 (A549 NSCLC) was 7.66 µM and 5.68 µM and 5.76 µM, the TGI (A549 NSCLC) was > 10 µM and > 100 µM and 23.5 µM and the TGI (HL-60(TB) leukemia) was > 10 µM and > 100 µM and 23.6 µM. For the same molecule, the GI50 (BT-549 breast) was > 10 µM and 19.7 µM and 7.43 µM, the TGI (BT-549 breast) was > 10 µM and > 47.5 µM and 44.7 µM and the GI50 (IGROV1 ovarian) was 2.02 µM and 0.338 µM and 0.387 µM. The TGI (IGROV1 ovarian) was > 10 µM and 26.1 µM, the GI50 (SN12C renal) was > 10 µM and 9.1 µM and the TGI (SN12C renal) was > 10 µM and > 100 µM and 36.2 µM. The GI50 (U251 CNS) was > 10 µM and 6.7 µM and 9.36 µM, the TGI (U251 CNS) was > 10 µM and > 100 µM and 24.9 µM and the GI50 (ACHN renal) was 0.539 µM and 0.435 µM and 0.323 µM. The TGI (ACHN renal) was > 10 µM and > 100 µM and 54.4 µM, the GI50 (MALME-3M melanoma) was > 10 µM and 1.66 µM and 2.67 µM and the TGI (MALME-3M melanoma) was > 10 µM and 3.23 µM and 6.56 µM. For the same molecule, the GI50 (HOP-62 NSCLC) was > 10 µM and > 62.2 µM and 13 µM, the TGI (HOP-62 NSCLC) was > 10 µM and > 100 µM and 43.9 µM and the GI50 (MCF7 breast) was 7.66 µM and 2.18 µM and 2.11 µM. The TGI (MCF7 breast) was > 10 µM and 9.12 µM and 6.69 µM, the GI50 (SW-620 colon) was > 10 µM and 1.94 µM and 3.82 µM and the TGI (SW-620 colon) was > 10 µM and 3.6 µM and 9.46 µM. For the same molecule, the GI50 (SR leukemia) was 2.75 µM and 2.57 µM and 2.28 µM, the TGI (SR leukemia) was > 10 µM and 5.8 µM and 11.3 µM and the GI50 (OVCAR-3 ovarian) was > 10 µM and 3.54 µM and 8.01 µM. The TGI (OVCAR-3 ovarian) was > 10 µM and 52.6 µM and 24.2 µM, the GI50 (MOLT-4 leukemia) was 4.54 µM and 2.93 µM and 2.94 µM and the TGI (MOLT-4 leukemia) was > 10 µM and > 100 µM and 21.9 µM. For the same molecule, the GI50 (KM12 colon) was 8.92 µM and 2.03 µM and 5.25 µM, the TGI (KM12 colon) was > 10 µM and 4 µM and 24.5 µM and the GI50 (MDA-MB-231 breast) was > 10 µM and 4.14 µM and 9.07 µM. The TGI (MDA-MB-231 breast) was > 10 µM and > 100 µM and 29.5 µM, the TGI (T-47D breast) was > 10 µM and > 100 µM and 37.6 µM and the GI50 (UACC-257 melanoma) was > 10 µM and 1.97 µM and 3.1 µM. The TGI (UACC-257 melanoma) was > 10 µM and 3.75 µM and 6.52 µM, the GI50 (HCT-116 colon) was > 10 µM and 7.19 µM and 10.3 µM and the TGI (HCT-116 colon) was > 10 µM and > 100 µM and 23.6 µM. For the same molecule, the GI50 (SNB-19 CNS) was > 10 µM and 99.6 µM and 17.7 µM, the TGI (SNB-19 CNS) was > 10 µM and > 100 µM and 66.7 µM and the GI50 (SF-295 CNS) was 6.84 µM and 5.32 µM and 3.54 µM. For the same molecule, the TGI (SF-295 CNS) was > 10 µM and > 100 µM and 24.8 µM, the GI50 (MDA-MB-435) was > 10 µM and 4.38 µM and 7.84 µM and the TGI (MDA-MB-435) was > 10 µM and > 30.8 µM and 34.1 µM. For the same molecule, the GI50 (HOP-92 NSCLC) was 2.17 µM and 18.6 µM and 2.03 µM, the TGI (HOP-92 NSCLC) was > 10 µM and > 100 µM and 14.4 µM and the GI50 (CCRF-CEM leukemia) was > 10 µM and 2.03 µM and 1.56 µM. For the same molecule, the TGI (CCRF-CEM leukemia) was > 10 µM and 5.67 µM and 20.7 µM, the GI50 (SK-MEL-5 melanoma) was 3.21 µM and 4.34 µM and the TGI (SK-MEL-5 melanoma) was 22.9 µM and 15.4 µM. The GI50 (UACC-62 melanoma) was > 10 µM and 6.68 µM and 9.22 µM, the TGI (UACC-62 melanoma) was > 10 µM and > 100 µM and 23.1 µM and the GI50 (M14 melanoma) was 8.6 µM and 2.56 µM and 4.22 µM. The TGI (M14 melanoma) was > 10 µM and > 20.2 µM and 12.2 µM, the GI50 (HCT-15 colon) was 4.97 µM and 3.63 µM and 3.54 µM and the TGI (HCT-15 colon) was > 10 µM and > 100 µM and 27.6 µM. For the same molecule, the GI50 (DU-145 prostate) was 7.11 µM and 2.61 µM and 6.75 µM, the TGI (DU-145 prostate) was > 10 µM and > 100 µM and 34.8 µM and the GI50 (SK-OV-3 ovarian) was 0.0681 µM and 0.0409 µM and 0.0441 µM. The TGI (SK-OV-3 ovarian) was > 10 µM and > 100 µM and 31.7 µM, the GI50 (SF-268 CNS) was > 10 µM and 5.18 µM and 11.6 µM and the TGI (SF-268 CNS) was > 10 µM and > 100 µM and 43.4 µM. The GI50 (TK-10 renal) was 0.17 µM and 0.176 µM and 0.0385 µM, the TGI (TK-10 renal) was > 10 µM and > 100 µM and 11.2 µM and the GI50 (OVCAR-4 ovarian) was > 10 µM and 7.8 µM and 6.78 µM. The TGI (OVCAR-4 ovarian) was > 10 µM and > 86.9 µM and 23.3 µM, the GI50 (K-562 leukemia) was > 10 µM and 1.99 µM and 2.61 µM and the TGI (K-562 leukemia) was > 10 µM and 4.67 µM and 18.3 µM. The GI50 (NCI/ADR-RES ovarian) was 5.52 µM and 2.9 µM and 4.32 µM, the TGI (NCI/ADR-RES ovarian) was > 10 µM and > 100 µM and 50.3 µM and the GI50 (RPMI-8226 leukemia) was 3.54 µM and 2.82 µM and 1.58 µM. The TGI (RPMI-8226 leukemia) was > 10 µM and > 29.4 µM and 7.05 µM, the GI50 (LOX IMVI melanoma) was 8.23 µM and 1.79 µM and 4.19 µM and the TGI (LOX IMVI melanoma) was > 10 µM and 3.35 µM and 10.1 µM. For the same molecule, the GI50 (UO-31 renal) was 2.39 µM and 0.807 µM and 1.08 µM, the TGI (UO-31 renal) was > 10 µM and > 33 µM and 26.2 µM and the GI50 (786-0 renal) was > 10 µM and 4.43 µM and 5.46 µM. For the same molecule, the TGI (786-0 renal) was > 10 µM and > 42.3 µM and 29.2 µM, the GI50 (SNB-75 CNS) was > 10 µM and 4.33 µM and 8.75 µM and the TGI (SNB-75 CNS) was > 10 µM and 35.5 µM and 44.2 µM. The GI50 (EKVX NSCLC) was 0.374 µM and 0.0822 µM and 0.107 µM, the TGI (EKVX NSCLC) was > 10 µM and > 100 µM and 41.7 µM and the GI50 (NCI-H226 lung) was > 10 µM and > 100 µM and 25 µM. The TGI (NCI-H226 lung) was > 10 µM and > 100 µM and 86.7 µM, the GI50 (HCC-2998 colon) was > 10 µM and 4.1 µM and 8.86 µM and the TGI (HCC-2998 colon) was > 10 µM and 17.8 µM and 24.2 µM.
